Results taken from patent US20030017519A1, “Electrochemical enzyme assay” (priority 1993, published 2003).

Assay: Electrochemical characteristics of β-galactosidase labeled substrates and their cleaved labels
Type: physicochemical
Settings: for Reversible?: electrochemical reversibility, per oxidation potential listed; for Elec. Active?: scanned in the potential range −0.6 V to +1.0 V vs. Ag/AgCl
From the text: When cleaved from the substrate, the label should be electrochemically active in this same potential range.

Row | Reversible? | Elec. Active? | SMILES | electrochemical activity at the measurement potential (before and after cleavage) | Eox vs. Ag/AGCL [V]
1 | quasi, no | yes | COc1ccc(O[C@@H]2O[C@H](CO)[C@H](O)[C@H](O)[C@H]2O)c2ccccc12 |  | 
2 |  | no | Nc1ccc(O[C@@H]2O[C@H](CO)[C@H](O)[C@H](O)[C@H]2O)cc1 [p-aminophenyl-β-D-galactyopyranoside, p-aminophenyl-β-D-galactopyranoside] |  | 
3 | quasi, no | yes | COc1ccc(O)c2ccccc12 [4-methoxy-1-naphthol] |  | 
4 | no | yes | OCCOCCOCCOc1ccc(O)c2ccccc12 [4-(1,4,7, 10-tetraoxadecyl)-1-naphthol] |  | 
5 | no, no | yes | OCCOCCOCCOc1ccc(O[C@@H]2O[C@H](CO)[C@H](O)[C@H](O)[C@H]2O)c2ccccc12 |  | 

Row | SMILES | Reversible? | Elec. Active? | electrochemical activity at the measurement potential (before and after cleavage) | Eox vs. Ag/AGCL [V]
6 | O=c1ccc2nc3ccc(O[C@@H]4O[C@H](CO)[C@H](O)[C@H](O)[C@H]4O)cc3oc-2c1 [resorufin-β-D-galactopyranoside] | Yes | yes | electrochemically active at the measurement potential before and after cleavage | −0.100
7 | O=c1ccc2nc3ccc(O)cc3oc-2c1 [resorufin] | yes | yes |  | −0.100
